For orientation: Km means the substrate concentration at which the rate is half of its maximum. The term Vmax denotes the top rate of the reaction or transport when substrate is in excess.

This is an account of results in ChEMBL document CHEMBL3525955, “Glucuronidation of the red clover isoflavone irilone by liver microsomes from different species and human UDP-glucuronosyltransferases” (Drug Metab Dispos, 2011).

In data set [1] the target is T1, UDP-glucuronosyltransferase 1A9 (Homo sapiens, UniProt O60656).
T1 sequence (O60656 whole entry): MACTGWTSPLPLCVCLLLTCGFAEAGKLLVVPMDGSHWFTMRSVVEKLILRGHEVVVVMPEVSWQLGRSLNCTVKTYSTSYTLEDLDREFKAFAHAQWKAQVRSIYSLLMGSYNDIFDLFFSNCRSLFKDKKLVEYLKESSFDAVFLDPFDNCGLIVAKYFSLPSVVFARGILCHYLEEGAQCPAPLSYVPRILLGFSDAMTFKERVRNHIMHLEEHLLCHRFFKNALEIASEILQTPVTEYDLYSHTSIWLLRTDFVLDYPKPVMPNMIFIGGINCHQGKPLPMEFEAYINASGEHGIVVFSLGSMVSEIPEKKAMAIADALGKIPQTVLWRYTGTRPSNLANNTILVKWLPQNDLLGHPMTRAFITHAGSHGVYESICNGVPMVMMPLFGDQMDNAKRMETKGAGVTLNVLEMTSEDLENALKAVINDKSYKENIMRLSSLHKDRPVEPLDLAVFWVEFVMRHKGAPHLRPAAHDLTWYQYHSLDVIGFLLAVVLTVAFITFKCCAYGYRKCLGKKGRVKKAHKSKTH
Put plainly: Substrate inhibition of human recombinant UGT1A9 assessed as IRI-O-5-monoglucuronide formation incubated for 5 mins prior to UDPGA addition measured after 90 mins by Eadie-Hoftsee plot analysis. It counts as ADME.

Data set [2] deals with T1, UDP-glucuronosyltransferase 1A9. Put plainly: Drug metabolism assessed as human recombinant UGT1A9-mediated irilone-O-5-monoglucuronide formation incubated for 5 mins prior to UDPGA addition measured after 90 mins by HPLC-DAD analysis. The class given is ADME. The conditions noted are these: recombinant enzyme, 1.5 h.
In data set [3] the target is Liver microsome. Briefly: Drug metabolism in Sprague-Dawley rat liver microsomes assessed as substrate inhibition of IRI-O-5-monoglucuronide formation incubated for 5 mins prior to UDPGA addition measured after 90 mins by Eadie-Hoftsee plot analysis. The class given is ADME. (Liver microsomes are vesicles of endoplasmic reticulum, rich in cytochrome P450 enzymes.)
Data set [4] concerns the target T2, UDP-glucuronosyltransferase 1A1 (Homo sapiens, UniProt P22309).
T2 sequence (P22309 whole entry): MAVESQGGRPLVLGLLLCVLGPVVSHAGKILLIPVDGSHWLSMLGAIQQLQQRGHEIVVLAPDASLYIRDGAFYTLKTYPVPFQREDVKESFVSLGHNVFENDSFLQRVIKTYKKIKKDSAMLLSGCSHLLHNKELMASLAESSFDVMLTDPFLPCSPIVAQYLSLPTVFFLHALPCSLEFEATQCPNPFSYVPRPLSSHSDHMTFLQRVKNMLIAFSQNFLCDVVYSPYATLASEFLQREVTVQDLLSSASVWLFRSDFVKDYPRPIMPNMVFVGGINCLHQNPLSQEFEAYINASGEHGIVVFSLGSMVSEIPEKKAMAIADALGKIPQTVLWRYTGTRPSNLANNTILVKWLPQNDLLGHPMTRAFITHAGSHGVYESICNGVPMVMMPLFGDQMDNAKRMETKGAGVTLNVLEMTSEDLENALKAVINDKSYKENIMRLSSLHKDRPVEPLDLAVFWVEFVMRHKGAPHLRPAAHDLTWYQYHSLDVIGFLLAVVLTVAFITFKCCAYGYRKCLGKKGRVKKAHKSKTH
Briefly: Drug metabolism assessed as human recombinant UGT1A1-mediated irilone-O-5-monoglucuronide formation at 25 uM incubated for 5 mins prior to UDPGA addition measured after 90 mins by HPLC-DAD analysis. The class given is ADME. The conditions noted are these: recombinant enzyme, 1.5 h.

In data set [5] the target is T3, UDP-glucuronosyltransferase 1A8 (Homo sapiens, UniProt Q9HAW9).
T3 sequence (Q9HAW9 whole entry): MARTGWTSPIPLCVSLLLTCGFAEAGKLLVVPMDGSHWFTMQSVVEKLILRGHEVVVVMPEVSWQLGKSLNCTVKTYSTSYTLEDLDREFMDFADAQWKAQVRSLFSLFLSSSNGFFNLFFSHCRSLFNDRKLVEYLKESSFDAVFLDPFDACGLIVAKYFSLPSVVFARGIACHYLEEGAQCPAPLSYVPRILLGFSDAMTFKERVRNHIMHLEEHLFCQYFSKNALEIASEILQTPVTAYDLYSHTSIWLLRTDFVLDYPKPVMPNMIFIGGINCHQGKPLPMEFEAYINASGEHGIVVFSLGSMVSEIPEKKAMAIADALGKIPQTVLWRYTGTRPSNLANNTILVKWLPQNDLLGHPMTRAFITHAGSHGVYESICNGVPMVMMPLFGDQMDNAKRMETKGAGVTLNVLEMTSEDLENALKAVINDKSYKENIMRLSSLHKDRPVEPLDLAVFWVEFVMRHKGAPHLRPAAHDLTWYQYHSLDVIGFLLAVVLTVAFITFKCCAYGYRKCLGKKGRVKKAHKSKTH
Put plainly: Drug metabolism assessed as human recombinant UGT1A8-mediated irilone-O-4'-monoglucuronide formation at 25 uM incubated for 5 mins prior to UDPGA addition measured after 90 mins by HPLC-DAD analysis. The class given is ADME. The conditions noted are these: recombinant enzyme, 1.5 h.

Data set [6] relates to Liver microsome. Briefly: Drug metabolism in human liver microsomes assessed as IRI-O-5-monoglucuronide formation incubated for 5 mins prior to UDPGA addition measured after 90 mins by Eadie-Hoftsee plot analysis. The class given is ADME. The conditions noted are these: 1.5 h.
Data set [7] deals with Liver microsome. Briefly: Drug metabolism in Sprague-Dawley rat liver microsomes assessed as IRI-O-5-monoglucuronide formation incubated for 5 mins prior to UDPGA addition measured after 90 mins by Eadie-Hoftsee plot analysis. The class given is ADME. The conditions noted are these: 1.5 h.
Data set [8] in a line: Drug metabolism in pig liver microsomes assessed as substrate inhibition of IRI-O-5-monoglucuronide formation incubated for 5 mins prior to UDPGA addition measured after 90 mins by Eadie-Hoftsee plot analysis. It counts as ADME, Sus scrofa.
Data set [9] addresses T4, UDP-glucuronosyltransferase 1A7 (Homo sapiens, UniProt Q9HAW7).
T4 sequence (Q9HAW7 whole entry): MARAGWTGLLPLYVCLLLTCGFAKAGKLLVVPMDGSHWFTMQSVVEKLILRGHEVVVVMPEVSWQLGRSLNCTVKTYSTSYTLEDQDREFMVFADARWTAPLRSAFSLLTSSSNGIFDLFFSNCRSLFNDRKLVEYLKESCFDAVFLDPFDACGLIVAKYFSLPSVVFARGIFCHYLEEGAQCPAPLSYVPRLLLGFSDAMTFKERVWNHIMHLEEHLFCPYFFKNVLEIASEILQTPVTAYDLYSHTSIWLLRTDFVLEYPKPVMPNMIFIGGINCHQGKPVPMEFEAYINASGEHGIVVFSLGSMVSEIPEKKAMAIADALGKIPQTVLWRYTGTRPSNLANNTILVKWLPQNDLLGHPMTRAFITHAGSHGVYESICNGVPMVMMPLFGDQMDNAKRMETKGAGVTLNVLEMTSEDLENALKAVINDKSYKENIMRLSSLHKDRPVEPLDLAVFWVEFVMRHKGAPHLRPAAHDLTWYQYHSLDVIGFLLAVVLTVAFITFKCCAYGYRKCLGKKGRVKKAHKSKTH
Briefly: Drug metabolism assessed as human recombinant UGT1A7-mediated irilone-O-5-monoglucuronide formation at 25 uM incubated for 5 mins prior to UDPGA addition measured after 90 mins by HPLC-DAD analysis. It counts as ADME. The conditions noted are these: recombinant enzyme, 1.5 h.

Data set [10] deals with T3, UDP-glucuronosyltransferase 1A8. Put plainly: Substrate inhibition of human recombinant UGT1A8 assessed as IRI-O-5-monoglucuronide formation incubated for 5 mins prior to UDPGA addition measured after 90 mins by Eadie-Hoftsee plot analysis. It counts as ADME.

For the compound `O=c1c(-c2ccc(O)cc2)coc2cc3c(c(O)c12)OCO3`, the Ki in data set [1] worked out at 534 µM; in [3], 65.3 µM; in data set [8], 183 µM; in [10], 22.6 µM. Moreover, the Drug metabolism result in data set [2], in [4], in data set [5] and in [9] was “metabolite_detected” in each case. Moreover, the Km is 9.8 µM in [6] and 34 µM in data set [7]. Besides, the results for the Vmax in data set [6] and in [7] were 0.43 nmol/mg/min and 1.37 nmol/mg/min, respectively.
